pIC50: −log10 of the molar value. Where two headings read alike, the source gives them in different places.
Key:
[1] = system: colitis induced by TNBS in rats; experiment: Colitis induced by TNBS in rats; type: in vivo, rat; details: for Weight of the colon: 48 hours after TNBS; for Weight of the colon / Myeloperoxidase activity / iNOS activity / Macroscopic damage (MDS): mean ± SD; for Myeloperoxidase activity / iNOS activity: colon tissue; for Macroscopic damage (MDS): score 0-10
Text: The combined capability of some of the compounds of the invention to inhibit both iNOS and the synthesis of TNFα has led to their activity being checked in an experimental model of colitis caused by a chemical hapten, trinitrobenzene-sulphonic acid (TNBS), which can bind to the tissue proteins and stimulate cell-mediated immunity. The intrarectal administration of TNBS in association with ethanol causes acute inflammation characterised by extensive ulceration and necrosis.
A distal colitis was therefore induced in the rat by intrarectal instillation of TNBS (40 mg/kg) dissolved in 50% ethanol (0.5 ml/rat). The drugs were administered orally twice a day on days −2; −1; 0; +1 and the animals were killed 48 hours after the administration of TNBS.
The parameters examined were: total weight of the colon (g), macroscopic tissue damage “score”, measurement of the tissue myeloperoxidase (MPO) activity, which is a marker of the infiltration of the neutrophiles, and measurement of the iNOS activity (pmoles/g tissue/min.).
The macroscopic score (MDS) was taken on about 10 cm of colon in accordance with the following arbitrary scale:
The tissue MPO measurement was performed according to Velgara et al., JPET 1994. The measurement of the tissue nitrites was performed by applying the method described above for the chondrocytes to the supernatant fluid of the tissue homogenate.
Compound I-4, administered in doses of 5, 10 and 20 mg/kg, and compound I-11 were examined, by administering them orally, in comparison with sulphasalazine (250 mg/kg) and 5-aminosalicylic acid (5-ASA) (100 mg/kg), 2 drugs which are widely used in the treatment of ulcerative colitis.

[2] = system: neutral proteases (metalloproteases); experiment: Inhibition of neutral proteases (metalloproteases) in supernatant of IL-1β-stimulated rabbit joint chondrocytes, azocoll substrate; type: biochemical; details: IL-1β 1 ng/ml, 48 hours, APMA-activated supernatant, read-out: MP (metalloproteases) IC50
Method: (§1) a) The activity in inhibiting the formation of NO, measured as NO2^− (nitrites), PGE2, and neutral protease, was investigated in vitro on culture broths of rabbit joint chondrocytes stimulated by cytokine IL-1β (1 ng/ml) for 48 hours. For the preparation of the chondrocytes, the method described by Berenbaum et al [FEBS Letters 340, 51-55 (1994)] was followed. Briefly, fragments of cartilage removed under sterile conditions from the heads of rabbit shoulder, hip and knee joints were chopped finely and digested at 37° C. by hyaluronidase, trypsin and collagenase solutions, giving rise, after filtration on sterile gauze and centrifuging at 600×g and suitable dilution with 10% DMEM-FCS, to a concentration of approximately 1×10^5 cells per well. The cells were kept in these conditions until confluence (about 15 days), the broth being changed every 3 days. At this point, the products under test, dissolved in the medium, were added to each test sample and, after 20 minutes, 350 μl IL-1β was added in order to have a final concentration of 1 ng/ml. The duration of the stimulation was 48 hours at 37° C. (incubation air-CO2 7%). Measurement of the nitrites, as described by Green et al. [Anal. Biochem. 126, 131-138 (1982)], and of the PGE2s by RIA measurement, was then performed on the cell supernatant fluid. The measurement of the neutral proteases was performed in the cell supernatant fluid containing the p-aminophenyl mercury acetate (APMA) activator with the use of azocoll as the substrate and with incubation at 37° C. for 17 h as described by Chavira et al. [Anal. Biochem. 136, 446-450 (1984)]. In order to evaluate the direct inhibitory effect of the compounds under test on the hydrolytic activity of the cell supernatant fluid, they were added to the supernatant fluid containing the proteases induced by IL-1β and already activated by AMPA.
(§2) The results obtained are shown in Table 3, in which the IC50, that is, the concentration (micromolar) of antagonist which can inhibit the formation of nitrites, PGE2s, and neutral proteases, respectively, by 50% relative to the control group, that is, to the cells stimulated with IL-1β but without the addition of antagonists, is given for some of the compounds of the invention already given by way of example in Table 2.

[3] = system: formation of NO, measured as NO2− (nitrites); experiment: Inhibition of NO (nitrite) formation in rabbit joint chondrocytes stimulated by IL-1β; type: cell-based; details: IL-1β 1 ng/ml, 48 hours, NO determined as nitrites
Method: as §1, §2

[4] = system: formation of PGE2; experiment: Inhibition of PGE2 formation in rabbit joint chondrocytes stimulated by IL-1β (RIA); type: cell-based; details: IL-1β 1 ng/ml, 48 hours
Method: as §1, §2

[5] = system: extravasation in the ears of mice; experiment: Extravasation (Evans Blu) induced by phlogogenic agents in the ears of mice; type: in vivo
Method: b) Some of the compounds of the invention, such as compounds I-4, I-11 and I-31, were evaluated in vivo in a series of experimental extravasation models in which 5 μl of the preselected phlogogenic agent dissolved in physiological solution was injected intradermally into the ears of mice as described by Erdo et al., with slight modifications [Agents and Actions 39, 137-142 (1993)].
The products under test were administered orally 1 hour before the challenge and, 30 minutes before the challenge, the dye Evans Blu was injected intravenously in a dose of 100 mg/kg. The animals were killed at a time predetermined according to the test, 30 min.—2 hours after the challenge. The extravasation was evaluated by determining the quantity of dye present in the ear, extracted after homogenisation of the tissue in 2 ml of formamide and incubation at 50° C. for 2 hours. After centrifuging, the amount of dye was determined by measuring the absorption at 620 nm. The maximum % effect (% MPE) was calculated by the following formula:
[formula] in which EV is the mean absorption observed in the group of animals treated solely with the phlogogenic agent, ED is the group treated with the phlogogenic agent and the drug, and EB is the base value, that is, the value for the animals injected with physiological solution alone.
The phlogogenic agents used were:
Arachidonic acid (dissolved in EtOH); (1 mg/mouse; killed+30 min); histamine (3 nmoli/mouse; killed+30 min); PAF (30 pmoli/mouse; killed+60 min); Zymosan (10 μg/mouse; killed+120 min); bradykinin (0.6 nmoli/mouse; killed+30 min).

[6] = Oryctolagus cuniculus, Chondrocyte
[7] = OS, mouse ear, PAF, read-out: ED50, extravasation induced by PAF
[8] = 250 mg/kg, non-statistically significant

Structure (SMILES): Nc1ccc(O)c(C(=O)O)c1 [Compound 5-ASA, 5-aminosalicylic acid, reference compound]
- activity on all of the parameters (in words) ([1]; 100 mg/kg): inactive
- Weight of the colon ([1]; 100 mg/kg orally twice a day): 2.4 ± 0.4 g
- Myeloperoxidase activity ([1]; 100 mg/kg orally twice a day): 7.9 ± 2.3 UMPO/g/min
- iNOS activity ([1]; 100 mg/kg orally twice a day): 167.3 ± 106.5 pmol/g/min
- Macroscopic damage (MDS) ([1]; 100 mg/kg orally twice a day): 6.9 ± 1.1

Structure (SMILES): CNC(=S)Nc1ccc(NC(C)=N)cc1 [Compound I-1]
- pIC50 [2]: 4.52

Structure (SMILES): CCCNC(=S)Nc1ccc(NC(C)=N)cc1 [Compound I-2]
- pIC50 [3, 6]: < 3.52
- pIC50 [4, 6]: < 3.52
- pIC50 [2]: 4.52
- melting point: 188.1 to 189.1 °C

Structure (SMILES): CCCCNC(=S)Nc1ccc(NC(C)=N)cc1 [Compound I-3]
- pIC50 [3]: 3.72
- pIC50 [4]: 3.60
- pIC50 [2]: 4.88

Structure (SMILES): CCCCCCNC(=S)Nc1ccc(NC(C)=N)cc1 [Compound I-5]
- pIC50 [3]: 5.00
- pIC50 [4]: 5.00
- pIC50 [2]: 5.48

Structure (SMILES): CCCCCCCNC(=S)Nc1ccc(NC(C)=N)cc1 [Compound I-6]
- pIC50 [3, 6]: 4.52
- pIC50 [4, 6]: 4.70
- pIC50 [2]: 4.70
- melting point: 177.8 to 178.4 °C

Structure (SMILES): CC(=N)Nc1ccc(NC(=S)NCCC(C)C)cc1 [Compound I-7]
- pIC50 [3]: 5.48
- pIC50 [4]: 5.18
- pIC50 [2]: 4.88

Structure (SMILES): CC(=N)Nc1ccc(NC(=S)NC2CCCCC2)cc1 [Compound I-11]
- pIC50 [3]: 3.96
- pIC50 [4]: 4.78
- pIC50 [2]: 4.52
- activity in TNBS colitis (in words) ([1]; 20 mg/kg): active
- Weight of the colon ([1]; 20 mg/kg orally twice a day): 2.2 ± 0.3 g
- Myeloperoxidase activity ([1]; 20 mg/kg orally twice a day): 6.5 ± 1.8 UMPO/g/min
- iNOS activity ([1]; 20 mg/kg orally twice a day): 90.6 ± 45.6 pmol/g/min
- Macroscopic damage (MDS) ([1]; 20 mg/kg orally twice a day): 4.3 ± 0.9(*)

Structure (SMILES): CCC(=N)Nc1ccc(NC(=S)NC2CCCCC2)cc1 [Compound I-12]
- pIC50 [4]: 4.88
- pIC50 [2]: 4.00

Structure (SMILES): CC(=N)Nc1ccc(NC(=S)Nc2ccccc2)cc1 [Compound I-13]
- pIC50 [3]: 4.00
- pIC50 [4]: 5.00
- pIC50 [2]: 5.18

Structure (SMILES): CC(=N)Nc1ccc(NC(=S)NCCc2ccccc2)cc1 [Compound I-14]
- pIC50 [3]: 4.00
- pIC50 [4]: 4.48
- pIC50 [2]: 5.18

Structure (SMILES): CC(=N)Nc1ccc(NC(=S)NCCCc2ccccc2)cc1 [Compound I-15]
- pIC50 [3]: 4.48
- pIC50 [4]: 4.78
- pIC50 [2]: 5.18

Structure (SMILES): CC(=N)Nc1ccc(NC(=S)NCCc2ccc(F)cc2)cc1 [Compound I-16]
- pIC50 [3]: 4.88
- pIC50 [4]: 4.58
- pIC50 [2]: 5.18

Structure (SMILES): CC(=N)Nc1ccc(NC(=S)NCCc2ccc(Cl)cc2)cc1 [Compound I-17]
- pIC50 [3]: 5.00
- pIC50 [4]: 5.00
- pIC50 [2]: 5.00

Structure (SMILES): CC(=N)Nc1ccc(NC(=S)NCCc2c(F)cccc2F)cc1 [Compound I-18]
- pIC50 [4]: 5.18
- pIC50 [2]: 5.18

Structure (SMILES): CC(=N)Nc1ccc(NC(=S)NCc2ccccn2)cc1 [Compound I-19]
- pIC50 [2]: 4.88

Structure (SMILES): CC(=N)Nc1ccc(NC(=S)NCCc2ccccn2)cc1 [Compound I-20]
- pIC50 [3]: 4.78
- pIC50 [4]: 4.78
- pIC50 [2]: 5.18

Structure (SMILES): CC(=N)Nc1ccc(NC(=S)Nc2ncc(C)s2)cc1 [Compound I-21]
- pIC50 [3]: 4.18

Structure (SMILES): CCCCCC(=O)Nc1ccc(NC(C)=N)cc1 [Compound I-23]
- pIC50 [3]: 4.00

Structure (SMILES): CC(=N)Nc1ccc(NC(=O)C2CCCCC2)cc1 [Compound I-24]
- pIC50 [3]: 4.48
- pIC50 [4]: 4.48

Structure (SMILES): CC(=N)Nc1ccc(NC(=O)C23CC4CC(CC(C4)C2)C3)cc1 [Compound I-25]
- pIC50 [4]: 4.78

Structure (SMILES): CC(=N)Nc1ccc(NC(=O)Cc2c[nH]c3ccccc23)cc1 [Compound I-27]
- pIC50 [3]: 5.00

Structure (SMILES): CC(=N)Nc1ccc(NC(=O)c2cc3ccccc3n2C)cc1 [Compound I-28]
- pIC50 [4]: 4.00

Structure (SMILES): CC(=N)Nc1ccc(NC(=O)NC2CCCCC2)cc1 [Compound I-29]
- pIC50 [3]: 4.60
- pIC50 [4]: 5.18
- pIC50 [2]: 4.60

Structure (SMILES): N=C(N)Nc1ccc(NC(=S)NC2CCCCC2)cc1 [Compound I-30, 1-guanidinophenyl-4-cyclohexyl Thiourea]
- pIC50 [3]: 5.18
- pIC50 [4]: 5.00
- pIC50 [2]: 4.88

Structure (SMILES): N=C(Nc1ccc(NC(=S)NC2CCCCC2)cc1)N[N+](=O)[O-] [Compound I-31]
- pIC50 [3]: 4.33
- pIC50 [4]: 4.52
- pIC50 [2]: 5.18
- ED50, extravasation induced by PAF ([5]; OS, mouse ear, PAF): 10.8 mg/kg
- ED50, extravasation induced by Zymosan ([5]; OS, mouse ear, Zymosan): 10.5 mg/kg
- ED50, extravasation induced by AA (arachidonic acid) ([5]; OS, mouse ear, arachidonic acid): 30.5 mg/kg

Structure (SMILES): CC(=N)Nc1cccc(NC(=S)NC2CCCCC2)c1 [Compound I-32]
- pIC50 [4]: 3.52

Structure (SMILES): CS(=O)(=O)Nc1ccc([N+](=O)[O-])cc1Oc1ccccc1 [Nimesulide, reference compound]
- ED50 [5, 7]: > 40 mg/kg
- ED50 ([5]; OS, mouse ear, arachidonic acid, read-out: ED50, extravasation induced by AA (arachidonic acid)): 41 mg/kg
- times less active than Compound I-4 ([5]; antagonising AA): 2 times

Structure (SMILES): CN1C(C(=O)Nc2ccccn2)=C(O)c2ccccc2S1(=O)=O [Piroxicam, reference compound]
- ED50 [5, 7]: 21.2 mg/kg
- ED50 ([5]; OS, mouse ear, Zymosan, read-out: ED50, extravasation induced by Zymosan): 6.1 mg/kg

Structure (SMILES): O=C(O)c1cc(/N=N/c2ccc(S(=O)(=O)Nc3ccccn3)cc2)ccc1O [Sulphasalazine, sulphasalazine, reference compound]
- Weight of the colon ([1]; 250 mg/kg orally twice a day): 2.5 ± 0.3 g
- Myeloperoxidase activity ([1]; 250 mg/kg orally twice a day): 7.5 ± 5.5 UMPO/g/min
- iNOS activity ([1]; 250 mg/kg orally twice a day): 100.8 ± 86.8 pmol/g/min
- Macroscopic damage (MDS) ([1]; 250 mg/kg orally twice a day): 6.0 ± 2.9
- effect on iNOS activity [1, 8]: about 50%
- effect on macroscopic damage [1, 8]: about 20%

— patent US7560591B2, “Benzamidine derivatives having anti-inflammatory and immunosuppressive activity” (Rotta Research Laboratorium S.p.A., priority 2001, dated 2009)
